The values below come from patent publication US20100166727A1, “S-Adenosylmethionine And Methylthioadensosine In Chemoprevention And Treatment Of Colon Polyps And Cancer” (UNIVERSITY OF SOUTHERN CALIFORNIA, priority 2007, published 2010).

Entries after “also recorded” stand apart in the source; their conditions may differ.

Data set [1] has as its system colon cancer cells. The conditions noted are these: by lowering c-FLIP expression; cited from earlier work.
The test system of data set [2] is MAT2A. Description: Intestinal MAT2A expression in mice given SAMe or MTA in drinking water. In kind it is in vivo. How it is done:
FIG. 30. Effects of oral SAMe and MTA on colonic mRNA levels of MAT2A, MAT2 β, and cFLIPL. Mice were fed SAMe (150 to 450 mg/kg/d) or MTA (75 or 150 mg/kg/d) in drinking water for 6 days. Colonic mucosa was scrapped off and gene expression measured by real-time PCR.
Three-month old male C57/B6 mice were fed ad libitum a standard diet (Harland Tekiad irradiated mouse diet 7912, Madison, Wis.), caged individually and had free access to water supplemented with SAMe ([…]), MTA (75 mg/kg/d), phosphate buffered saline (vehicle for SAMe) or DMSO (0.2%, vehicle for MTA) for 6 days. SAMe and MTA were made fresh daily. The amount of water intake, body weight, and animal behavior were closely monitored. After 6 days, animals were sacrificed, intestine was cut open along the longitudinal axis, and mucosa was stripped from the intestine (46). Mucosa was weighed and a portion processed for SAMe measurement as described below, the rest snap frozen for subsequent RNA extraction.
(§1) Total RNA was isolated by the EZgeno total RNA isolation kit (Genemega, San Giego, Calif.), and subjected to reverse transcription (RT) by using M-MLV Reverse transcriptase (Invitrogen). 2 μl of RT product was subjected to quantitative real-time PCR analysis. The primers and TaqMan probes for MAT2A, MAT2β and Universal PCR Master Mix were purchased from ABI (Foster City, Calif.). Hypoxanthine phosphoribosyl-transferase 1 (HPRT1) and ubiquitin C (UBC) were used as housekeeping genes (48). The thermal profile consisted of 1 cycle at 95° C. for 15 minutes followed by 40 cycles at 95° C. for 15 seconds and at 60° C. for 1 minute. The expression of MAT2A and MAT2β was checked by normalizing the Ct of MAT2A and MAT2β to that of the control housekeeping gene (HPRT1 or UBC) (49). The delta Ct obtained was used to find the relative expression of MAT genes according to the formula: Relative expression=2·^ΔCt, where ΔCt=ΔCt of MAT genes in colon cancer or treated cells—ΔCt of MAT genes in normal colon or control cells.

In data set [3] the test system is ornithine decarboxylase (ODC). The data set can be described thus: ODC expression by real-time PCR in HT-29 cells. It counts as cell-based, human.
Data set [4] in a line: Stability of SAMe and MTA in culture medium without cells and in water. In kind it is physicochemical. The conditions noted are these: culture medium at 37° C., MTA 1 mM. How it is done:
FIG. 12. […] SAMe (A) and MTA (B) levels were measured in culture medium without cells with starting SAMe concentrations ranging from 1 to 5 mM and MTA concentration at 1 mM.
To test whether the mitogens-induce increase in. MAT2A is to provide increased SAMe necessary for polyamine synthesis in growing cells, SAMe and polyamine levels were measured following treatment of HT-29 cells with mitogens.

Data set [5] has as its system Bcl-xL. The data set can be described thus: Bcl-xL mRNA level in HT-29 cells. It counts as cell-based, human. The conditions noted are these: MTA 1 mM, 6 hrs. Here is the method: SAMe and MTA induce apoptosis in liver cancer cells by the mitochondrial pathway (14). […] In liver cancer cells, SAMe and MTA induced selectively expression of Bcl-xs, a pro-apoptotic protein (67). We examined whether the same occurs in HT-29 cells. After 6 hrs of MTA (1 mM) treatment, Bcl-xL mRNA level fell by 53% (47±4% of control, results are mean±SE from 4 experiments, p<0.0005). […] This makes these agents particularly attractive in targeting colon cancer cells.

Data set [6] deals with NCM460 cells. Description: Toxicity and apoptosis in NCM460 normal colonic epithelial cells. In kind it is cell-based, human. Here is the method: In these experiments the total treatment duration was limited to 16 hrs to avoid the apoptotic effect. […] Apoptosis was measured by Hoechst staining or Annexin V and propidium iodide staining on flow cytometry.
Data set [7] concerns SPD syn. The data set can be described thus: SPD syn expression by real-time PCR in HT-29 cells. In kind it is cell-based, human.
The subject of data set [8] is MAT2β. Description: Colonic MAT2β mRNA in mice fed SAMe or MTA. It counts as in vivo. The conditions noted are these: 75 mg/kg/d MTA, 6 days. How it is done:
FIG. 30. Effects of oral SAMe and MTA on colonic mRNA levels of MAT2A, MAT2 β, and […]. Mice were fed SAMe (150 to 450 mg/kg/d) or MTA (75 or 150 mg/kg/d) in drinking water for 6 days. Colonic mucosa was scrapped off and gene expression measured by real-time PCR.

The nature of data set [9]: Tolerability of oral SAMe and MTA in mice. In kind it is in vivo. Conditions: oral in drinking water, 6 days; weight gain and water consumption similar to controls. From the text: SAMe and MTA were made fresh daily. The amount of water intake, body weight, and animal behavior were closely monitored. After 6 days, animals were sacrificed, intestine was cut open along the longitudinal axis, and mucosa was stripped from the intestine (46). Mucosa was weighed and a portion processed for SAMe measurement as described below, the rest snap frozen for subsequent RNA extraction.

For data set [10], the system named is MAT2A. Description: MAT2A mRNA levels by real-time PCR in HT-29 cells. It counts as cell-based, human. Here is the method: (§2) HT-29 and RKO cells were obtained from the Cell Culture Core of the USC Liver Disease Research Center and grown according to instructions provided by the American Type Culture Collection (ATCC, Rockville, Md.). Prior to treatment with growth factors, SAMe or MTA, medium was changed to 0.1% FBS overnight.
RNA interference (RNAi) experiments were performed using Lipofectamine RNAiMax (Invitrogen) according to the manufacturer's instructions. Small interfering RNA (siRNA) oligonucleotides for MAT2A and scrambled siRNA were synthesized by the USC Norris Comprehensive Cancer Center Microchemical Core Laboratory, and annealed to form duplexes. Stealth RNAi for MAT2A and Stealth RNAi negative control duplexes were synthesized by Invitrogen (Carlsbad, Calif.). The following siRNA sequences were used: si-MAT2A #1, 5′-[…]-3′ (sense) and 5′-[…]-3′ (antisense); si-control with scrambled sequence (negative control siRNA having no perfect matches to known human genes), 5′-[…]dTdT-3′ (sense) and 5% […]dTdT-3′ (antisense); stealth RNAi-MAT2A #5, 5′-[…]-3′ (sense) and 5′-[…]-3′ (antisense). […]
as §1

Data set [11] relates to spermine synthase (SPM syn). Description: SPM syn expression by real-time PCR in HT-29 cells. It counts as cell-based, human.
Data set [12] has as its system HT-29 cells. The data set can be described thus: Cellular SAMe and MTA levels in HT-29 cells. In kind it is cell-based, human. How it is done:
as §2
(§3) Cellular SAMe and MTA levels were measured (51) and polyamine levels were determined (52).

The test system of data set [13] is MAT2A. Description: MAT2A expression in NCM460 cells. In kind it is cell-based, human. Conditions: 5 mM SAMe or 1 mM MTA, 6 hrs. How it is done: as §1
NCM460 cell line was originally established in 1996 as the first non-malignant colonic epithelial cell line derived from the transverse colon (43). When first developed, cells formed both monolayer and in suspension, express villin and cytokeratin staining (43). […] The NCM460 cells in monolayer have features of transverse colon crypt cells (69). […]

The test system of data set [14] is c-FLIP. The data set can be described thus: c-FLIP mRNA level by real-time PCR in HT-29 cells. It counts as cell-based, human. Conditions: SAMe 2 mM, MTA 1 mM, 6 hrs, mean±SE.
In data set [15] the test system is HT-29 cells. Description: Polyamine levels in HT-29 cells. In kind it is cell-based, human. Conditions: 6 hrs, mitogen 100 ng/ml. How it is done:
as §2, §3

In data set [16] the test system is MAT2A. The data set can be described thus: MAT2A mRNA levels by real-time PCR in RKO cells. It counts as cell-based, human. Conditions: RKO cells, growth factor 100 ng/ml. Here is the method:
as §2
RNA interference (RNAi) experiments were performed using Lipofectamine RNAiMax (Invitrogen) according to the manufacturer's instructions. Small interfering RNA (siRNA) oligonucleotides for MAT2A and scrambled siRNA were synthesized by the USC Norris Comprehensive Cancer Center Microchemical Core Laboratory, and annealed to form duplexes. Stealth RNAi for MAT2A and Stealth RNAi negative control duplexes were synthesized by Invitrogen (Carlsbad, Calif.). The following siRNA sequences were used: si-MAT2A #1, 5′-[…]-3′ (sense) and 5′-[…]-3′ (antisense); si-control with scrambled sequence (negative control siRNA having no perfect matches to known human genes), 5′-[…]dTdT-3′ (sense) and 5% […]dTdT-3′ (antisense); stealth RNAi-MAT2A #5, 5′-[…]-3′ (sense) and 5′-[…]-3′ (antisense). Transfection was allowed to proceed 72 hours before collection for different assays.
as §1

In data set [17] the test system is MAT2β. The data set can be described thus: MAT2β (total, V1, V2) mRNA levels by real-time PCR in RKO cells. In kind it is cell-based, human. The conditions noted are these: growth factor 100 ng/ml. Here is the method: as §2
as §1, with “The delta Ct obtained was used to find the relative expression of MAT genes according to the formula: Relative expression=2·^ΔCt, where ΔCt=ΔCt of MAT genes in colon cancer or treated cells—ΔCt of MAT genes in normal colon or control cells.” left out
To better understand functional differences between the two MAT2β variants, we created vectors expressing either V1 or V2 using the mammalian expression vector pcDNA3.1D/V5-His/TOPO vector (Invitrogen). […] Cell growth was measured by 3H-thymidine incorporation into DNA. […]

Data set [18] concerns MAT2β. Description: MAT2β mRNA levels by real-time PCR in HT-29 cells. The conditions noted are these: HT29 cells, growth factor 100 ng/ml. It counts as cell-based, human. Here is the method: as §2, §1
Setting [19] is: 75 mg/kg/d in drinking water, six days.

On to `O=c1[nH]cc(F)c(=O)[nH]1` [5-FU, 5-fluorouracil], for which the TRAIL-induced apoptosis result in [1] is “sensitize colon cancer cells to TRAIL-induced apoptosis”.

As for `CSC[C@H]1O[C@@H](n2cnc3c(N)ncnc32)[C@H](O)[C@@H]1O` [MTA, methylthioadenosine], in data set [2] (setting [19]), the “MAT2A expression, colon” value is 87 ± 20 % of control MAT2A mRNA levels and the “MAT2A expression, proximal small intestine” value is listed as 82 ± 2 % of control MAT2A mRNA levels. Also, the “inhibition in colonic MAT2A mRNA level” value in data set [2] (MTA 75 mg/kg/d, 6 days) came out at 85%. Also, the “decrease of MAT2A expression in proximal small intestine” value in data set [2] (SAMe 150 mg/kg/d, MTA 75 mg/kg/d, six days) turned out to be 20%. For the same molecule, in data set [3] (MTA treatment for 6 hrs), the “lowering of ornithine decarboxylase (ODC) mRNA level” value is 30%. In addition, in [4], the stability result is on record as “highly stable; also recorded: no change in 24 hrs”. Moreover, the “fall of Bcl-xL mRNA level” value in data set [5] came to 53%. Besides, in [5] (mean±SE from 4 experiments), the “Bcl-xL mRNA level” value is given as 47±4 % of control. Moreover, the “toxicity in NCM460 cells” value in data set [6] (SAMe 0.2 to 2 mM, MTA 0.2 to 5 mM) is reported as “did not cause any toxicity”. Besides, the “apoptosis in NCM460 cells” value in data set [6] (SAMe up to 2 mM, MTA up to 5 mM) was “do not cause apoptosis”. In addition, the “lowering of spermidine synthase mRNA level” value in data set [7] (MTA treatment for 6 hrs) is recorded as 30%. The “inhibition of MAT2β expression” value in data set [8] amounted to 60%. In data set [9], the tolerability / toxicity result was “well tolerated; also recorded: no apparent toxicity”. Besides, the “reduction of baseline expression of MAT2A” value in [10] (SAMe 5 mM or MTA 1 mM, 6 hrs, HT29 cells) is reported as 60%. Moreover, the “lowering of spermine synthase mRNA level” value in data set [11] (MTA treatment for 6 hrs) is on record as 30%. In [12] (6 hrs, MTA 1 mM), this molecule had an MTA level of 0.652 ± 0.123 nmol/mg protein and an SAMe level of 0.81 ± 0.09 nmol/mg protein. Further, in [12] (16 hrs, MTA 1 mM), the MTA level is 0.689 ± 0.108 nmol/mg protein and the SAMe level stood at 0.54 ± 0.01 nmol/mg protein. The “reduction of MAT2A expression” value in [13] was found to be 40%. In [14], the “c-FLIP mRNA level” value is listed as 47±4 % of control.

In turn, “Leptin: growth factor implicated in colon cancer growth and invasion” gave a Putrescine in data set [15] of 0.27 ± 0.02 nmol/mg protein. Also, in data set [15], the Spermidine was 2.62 ± 0.02 nmol/mg protein. The molecule also registered a Spermine in [15] of 14.62 ± 2.70 nmol/mg protein. Also, the “MAT2A mRNA levels after growth factor” value in data set [16] was “near doubling”; in data set [10] (HT-29 cells, growth factor 100 ng/ml), “near doubling”. For the same molecule, the “MAT2β expression after growth factor” value in data set [17] and in data set [18] was “not affected” each time. Besides, the ODC expression in data set [3] (6 hrs, mitogen 100 ng/ml) is listed as 1.6 ± 0.09 fold of control. Moreover, the SPD syn expression in [7] (6 hrs, mitogen 100 ng/ml) was 2.3 ± 0.25 fold of control. The SPM syn expression in data set [11] (6 hrs, mitogen 100 ng/ml) is on record as 1.0 ± 0.05 fold of control. In addition, the MTA level in [12] (6 hrs, mitogen 100 ng/ml) came to 0.058 ± 0.010 nmol/mg protein; in [12] (16 hrs, mitogen 100 ng/ml), 0.064 ± 0.015 nmol/mg protein. In addition, the SAMe level in data set [12] (6 hrs, mitogen 100 ng/ml) is 0.48 ± 0.04 nmol/mg protein; in data set [12] (16 hrs, mitogen 100 ng/ml), 0.63 ± 0.02 nmol/mg protein.
